Key:
Green Foxtail = assay: Test D pre-/post-emergence weed control in cereals; format: in vivo, Setaria viridis; conditions: 20 days
Description: Two ten-inch in diameter plastic pans lined with polyethylene liners were filled with prepared Fallsington slit loam soil. One pan was planted with seeds of wheat (Triticum aestivum), barley (Hordeum vulgarel, wild oats (Avena fatua), downy brome (Bromus tectorum), cheatgrass (Bromus secalinus), blackgrass (Alopecurus myosuroides), annual bluegrass (Poa annual, green foxtail (Setaria viridis), quack grass (Agropyron repens), Italian ryegrass (Lolium multiflorum) and ripgut brome (Bromus rigidus). The other pan was planted with seeds of Russian thistle (Salsola kali), tansy mustard (Descuraina pinnata), smartweed (Polygonum pensylvanicum), tumble mustard (Sisymbrium altissium) kochia (Kochia scoparia), shepherd's purse (Capsella bursa-pastoris), Matricaria inodora, black nightshade (Solanum nigrum), yellow rocket (Barbarea vulgaris), wild mustard (Brassica kaber) and wild buckwheat (Polygonum convolvulus). The above two pans were treated pre-emergence. At the same time two pans in which the above plant species were growing were treated post-emergence. Plant height at the time of treatment ranged from 1-15 cm depending on plant species.
The compounds applied were diluted with a non-phytotoxic solvent and sprayed over-the-top of the pans. An untreated control and a solvent alone control were included for comparison. All treatments were maintained in the greenhouse for 20 days at which time the treatments were compared to the controls and the effects visually rated. The recorded data, presented in Table D, indicate that certain compounds from within the scope of the invention have utility for pre- and/or post-emergence weed control in cereal crops such as wheat and barley.

Soybeans = assay: Test G broadleaf herbicidal properties, overall spray; format: in vivo, soybean; conditions: 0.015 kg/ha, 22 days after treatment
Experimental: Approximately 12 soybean plants were grown in a 25 cm. diameter plastic pot. In another pot of equal size the following broadleaf plant species were grown: sugarbeets, velvetleaf, Sesbania, Cassia, mustard, morningglory, alfalfa, jimsonweed, and cocklebur. The plant foliage and surrounding soil were treated with the test chemical dissolved in a non-phytotoxic solvent as an overall spray at the rate of 0.015 kg/ha, when the plants were 17 days old. Visual ratings of herbicidal effects were made 22 days after treatment utilizing the rating system described for Test A.

SMILES | Green Foxtail response rating (Green Foxtail; Post-Emergence, 0.015 kg/ha) [G] | Green Foxtail response rating (Green Foxtail; Post-Emergence, 0.06 kg/ha) [G] | Green Foxtail response rating (Green Foxtail; Pre-Emergence, 0.015 kg/ha) [G] | Soybeans response rating (Soybeans)
CCCS(=O)(=O)Oc1ccccc1S(=O)(=O)NC(=O)Nc1nc(OC)cc(OC)n1 [Compound 36, N-[(4,6-dimethoxypropimidin-2-yl)aminocarbonyl]-2-hydroxybenzenesulfonamide, 1-propanesulfonate] | 1 | 2 | 2 | –
CCCS(=O)(=O)Oc1ccccc1S(=O)(=O)NC(=O)Nc1nc(C)nc(OC)n1 [Compound 39, 2-hydroxy-N-[(4-methoxy-6-methyl-1,3,5-triazin-2-yl)aminocarbonyl]benzenesulfonamide, 1-propanesulfonate] | – | – | – | 0

Source: patent EP0044212B1, “Herbicidal o-alkylsulfonyloxy- and o-alkylsulfonylamino-benzenesulfonamides” (E.I. DU PONT DE NEMOURS AND COMPANY, priority 1980, dated 1982)
